Results from US11702400B2, “Salt types, crystal forms, and preparation methods for benzopyrazole compounds as RHO kinase inhibitors” (MEDSHINE DISCOVERY INC., priority 2019, dated 2023).

Experiment: Pharmacokinetic study of the crystal form A of the compound of formula (II-1) in SD rats
Assay type: in vivo
Procedure: Experimental Purpose: To Study the Pharmacokinetics of the Compounds in SD Rats
Experimental Materials: SD Rats (12, Half Male and Half Female)
Experimental procedure: The pharmacokinetic characteristics of the compounds were tested in rodents after intravenous (IV) and oral (PO) administration using standard protocols. The candidate compounds were prepared into 0.5 mg/mL and 1 mg/mL clarified solutions and administrated to rats for single intravenous injection and oral administration. The solvent for both intravenous and oral administration was 5% DMSO/95% (10% hydroxypropyl β-cyclodextrin) aqueous solution. 12 SD rats were used in this project, and 6 rats (half male and half female) were administered intravenously at a dose of 1 mg/kg and plasma samples were collected at 0.0833, 0.25, 0.5, 1, 2, 4, 8, 12, and 24 h after administration, and the other 6 rats (half male and half female) were administered orally by gavage at a dose of 10 mg/kg and plasma samples were collected at 0.25, 0.5, 1, 2, 4, 8, 12 and 24 h after administration. 15 μL of plasma sample was added to a 96-well plate, and 300 μL of internal standard working solution (MeOH (containing 1.00 ng/mL Verapamil and 0.1% formic acid (FA)): ACN (v:v, 50:50) solution) was added to precipitate the proteins, the 96-well plate was shaken for 15 min, followed by centrifugation at 4° C., 3220 g for 15 min. 150 μL of supernatant was placed in a new 96-well plate with 150 μL of aqueous solution containing 0.1% formic acid (FA) and shaken for 10 min, and then centrifuged at 4° C., 3220 g for 5 min. The samples were directly injected, and the plasma drug concentration was quantitatively analyzed by LC-MS/MS analysis method, and pharmacokinetic parameters were calculated, such as peak concentration (Cmax), clearance rate (CL), half-life (T1/2), […] (Vdss), area under the drug-time curve (AUC0-last), bioavailability (F), etc.

- Clearance rate CL (SD rats, IV 1 mg/kg): 22.4 mL/min/kg
- Half-life T1/2 (IV) (SD rats, IV 1 mg/kg): 4.93 h
- Tissue distribution Vdss (SD rats, IV 1 mg/kg): 7.39 L/kg
- Bioavailability F (SD rats, IV 1 mg/kg, PO 10 mg/kg): 17.8%
- Area under drug-time curve AUC0-last PO (SD rats, PO 10 mg/kg): 3.69 µM·h
- Cmax (SD rats, half male and half female, PO 10 mg/kg, read-out: Peak concentration Cmax): 519 nM
- pharmacokinetic properties (conclusion in words) (rats): good pharmacokinetic properties
Compound: COc1cccc(C(CN)NC(=O)c2cc(-c3ccc4[nH]nc(C)c4c3)ccn2)c1.Cl.Cl (stereo not shown)
